The test system of data set [1] is DMT1-deficient Caco-2 cells. The data set is described as follows: shDMT1-Caco2 55Fe transport assay. The data set is classed as cell-based. Particulars: 3 μM, 4 h; fold change over DMSO normalized to hinokitiol at 3 μM (FC hino=1).
A further data set in a line: Mouse 6-hour PK study. Particulars: in vivo, mouse 6-hour PK.

Regarding `CC(C)c1cccc(=O)c(O)c1` [hinokitiol, reference compound], the “Caco2 shDMT1 transport FC @ 3 μM, 4 h” value in data set [1] is 1. The AUC(0-t) in “Mouse 6-hour PK study” (read-out: AUClast 0-6 hr) stood at 584 ng·h/mL. The highest concentration (Cmax) – broadly, the peak of the concentration-time curve – in “Mouse 6-hour PK study” (read-out: Cmax) is 956 ng/mL. Besides, the half-life in the data set “Mouse 6-hour PK study” (read-out: t1/2 (converted)) was 1.11 h.

Source of the values: US20230406803A1, “TROPOLONE DERIVATIVES AND TAUTOMERS THEREOF FOR IRON REGULATION IN ANIMALS” (Kinesid Therapeutics, Inc, priority 2020, published 2023).
